According to article PMC6804264, “Enlarged Pore Size Chiral Mesoporous Silica Nanoparticles Loaded Poorly Water-Soluble Drug Perform Superior Delivery Effect” (Molecules, 2019):

Legend:
[1] = In vivo pharmacokinetics after oral (intragastric) administration; settings: male, Wistar, rat, rats, 40 mg/kg NMS, plasma
Method: 9 Male Wistar rats weighing 200 ± 20 g were randomly split into three groups (A group, NMS; B group, NMS/CMSN; C group, NMS/E-CMSN) and fasted for 12 h but given free access to water prior to the experiment. The three samples were suspended in 1.5 mL normal saline with the drug dose of 40 mg/kg and then orally administered (intragastric administration) to rats. Blood media (0.5 mL) of each animal was collected via the suborbital vein at different time intervals after administration and immediately centrifuged at 8000 rpm for 10 min to collect plasma. Subsequently, the obtained plasma was then stored at […] until analysis. 200 μL plasma sample was mixed with 80 μL of an internal standard solution (0.5 mg/mL) and 400 μL acetonitrile. The mixture was vortexed for 2 min. After centrifugation at 10,000 rpm for 5 min, the supernatant of each sample (20 μL) was subjected to HPLC analysis. The working conditions for HPLC analysis included: Mobile phase: methanol: pH 7.3 potassium dihydrogen phosphate buffer (65:35, v/v); Column temperature: 30 °C; Analysis wavelength: 370 nm; Flow rate: 1.0 mL/min.

[2] = stated in the introduction, no reference given; cited from earlier work
[3] = Contact angle measurement (wetting property); assay type: physicochemical; settings: pH 6.8 PBS; pH 6.8 PBS including trysin (Figure 6)
Method: To study the wettability differences after loading NMS into the two carriers, dynamic contact angle measurement was performed using JCY series (Shanghai, China). The working conditions covered: Automatic contact angle meter model, pressurized tablet of sample, as well as a drop of dissolution medium (2 μL). The measurement was started when dissolution medium dropped onto the tablet.

[4] = tested on: right hind ankle swelling after carrageenan injection into the paw; assay: Anti-inflammatory pharmacodynamics (carrageenan paw model, right hind ankle perimeter); assay type: in vivo, male Sprague–Dawley rats; settings: rats, oral, 40 mg/kg NMS
Method: Right hind ankle perimeter of rats was ascertained to study the anti-inflammatory biological effect of […] or NMS/E-CMSN. Twelve male Sprague-Dawley rats (200 ± 20 g) were separated into four groups (Group A: Normal saline; Group B: NMS; Group C: NMS/CMSN; Group D: NMS/E-CMSN) and then fasted overnight before experiment. The rats in Group B, Group C and Group D were administered orally with corresponding nanoparticles containing 40 mg/kg NMS, while the rats in Group A were administered orally with normal saline. Afterwards, the perimeters of right hind ankles were ascertained. After half an hour, 0.1 mL 1% carrageenan solution was injected subcutaneously into the paw of each rat. […] Then, the following parameters were calculated. (2) Repressionrate(%)=([…]0)positive (3) Swelling rate(%)=Ct-C0/C0×100 where C0 denotes original perimeter of right hind ankle; Ct is the measured perimeter of right hind ankle.

CS(=O)(=O)Nc1ccc([N+](=O)[O-])cc1Oc1ccccc1 [NMS, nimesulide]
AUC(0-t) ([1]; n = 3): 199 ± 66.6 µg·h/mL
Cmax ([1]; n = 3): 25400 ± 9680 ng/mL
Tmax ([1]; n = 3): 4 h
MRT last ([1]; n = 3, read-out: MRT(0–t)): 5.73 ± 0.354 h
half-life ([1]; n = 3, read-out: t1/2z (converted)): 5.08 ± 2.81 h
LogP value [2]: 3.79
wetting property / contact angle [3]: poor water wetting property
time at which anti-inflammatory function started [4]: 0.5 h
anti-inflammatory effect according to swelling rate profiles ([4]; 0.5-4 h): exerted anti-inflammatory pharmacodynamics effect
